Measured values published in ChEMBL document CHEMBL5393453, “Compositions and methods of using the same for treatment of neurodegenerative and mitochondrial disease” (2021).

Test: Cytotoxicity against human HeLa cells expressing YFP parkin assessed as highest safety dose by DAPI staining analysis
Assay type: toxicity, cell-based
Conditions: read-out: Activity

| Structure (SMILES) | MNTC [µM] |
| --- | --- |
| Fc1ccc2c(c1)OC[C@H](N1C[C@@H]3COC[C@H]3C1)[C@H]2Nc1ncnc2[nH]c(C(F)(F)F)cc12 (single isomer, unassigned) | 25 |
| C[C@H]1CN([C@@H]2COc3cc(F)ccc3[C@H]2Nc2ncnc3[nH]c(C(F)(F)F)cc23)CCO1 | 25 |
| c1ccc2c(c1)CC[C@@H](N1C[C@H]3COC[C@@H]3C1)[C@@H]2Nc1ncnc2[nH]c(C3CC3)cc12 | 25 |
| C[C@@H]1CN([C@@H]2CCc3ccccc3[C@H]2Nc2ncnc3[nH]c(C4CC4)cc23)C[C@H](C)O1 (single isomer, unassigned) | 25 |
| C[C@@H]1CN([C@@H]2CCc3ccccc3[C@H]2Nc2ncnc3[nH]c(C4CC4)cc23)CCO1 (single isomer, unassigned) | 25 |
| CO[C@H]1CCN([C@@H]2COc3ccccc3[C@H]2Nc2ncnc3[nH]c(C(F)(F)F)cc23)C1 | 25 |
| c1ccc2c(c1)OC[C@H](C1CCOCC1)[C@@H]2Nc1ncnc2[nH]c(C3CC3)cc12 | 25 |
| Fc1ccc2c(c1)OC[C@H](N1C[C@H]3COC[C@@H]3C1)[C@H]2Nc1ncnc2[nH]c(C(F)(F)F)cc12 (single isomer, unassigned) | 25 |
| C[C@@H]1CN([C@H]2CCc3ccccc3[C@@H]2Nc2ncnc3[nH]c(C4CC4)cc23)C[C@H](C)O1 (single isomer, unassigned) | 25 |
| c1ccc2c(c1)OC[C@@H](N1CCOCC1)[C@@H]2Nc1ncnc2[nH]c(C3CC3)cc12 (single isomer, unassigned) | 25 |
| FC(F)(F)c1cc2c(N[C@H]3c4ccccc4OC[C@H]3N3CCOCC3)ncnc2[nH]1 | 25 |
| Fc1ccc2c(c1)OC[C@H](N1CCOCC1)[C@H]2Nc1ncnc2[nH]c(C3CC3)cc12 | 25 |
| c1ccc2c(c1)OC[C@H](N1C[C@H]3COC[C@H]3C1)[C@H]2Nc1ncnc2[nH]c(C3CC3)cc12 (single isomer, unassigned) | 25 |
| OC(C1CCOCC1)[C@H]1COc2ccccc2[C@@H]1Nc1ncnc2[nH]c(C(F)(F)F)cc12 (stereo not given in full) | 25 |
| FC(F)(F)c1cc2c(N[C@H]3c4ccccc4CC[C@H]3C3CCOCC3)ncnc2[nH]1 | 25 |
| CN1CCN([C@@H]2CCc3ccccc3[C@H]2Nc2ncnc3[nH]c(C(F)(F)F)cc23)CC1 (single isomer, unassigned) | 25 |
| Fc1cccc2c1CC[C@@H](N1C[C@H]3COC[C@H]3C1)[C@@H]2Nc1ncnc2[nH]c(C(F)(F)F)cc12 (single isomer, unassigned) | 25 |
| c1ccc2c(c1)CC[C@@H](C1CCOCC1)[C@H]2Nc1ncnc2[nH]c(C3CC3)cc12 | 25 |
| C[C@@H]1CN([C@H]2COc3cc(F)ccc3[C@@H]2Nc2ncnc3[nH]c(C(F)(F)F)cc23)CCO1 | 25 |
| C[C@H]1CN([C@H]2COc3ccccc3[C@@H]2Nc2ncnc3[nH]c(C(F)(F)F)cc23)CCO1 | 25 |
| Fc1ccc2c(c1)OC[C@@H](N1CCOCC1)[C@@H]2Nc1ncnc2[nH]c(C3CC3)cc12 (single isomer, unassigned) | 25 |
| C[C@@H]1CN([C@@H]2COc3cc(F)ccc3[C@H]2Nc2ncnc3[nH]c(C4CC4)cc23)CCO1 | 25 |
| C[C@H]1CN([C@H]2COc3cc(F)ccc3[C@@H]2Nc2ncnc3[nH]c(C(F)(F)F)cc23)CCO1 | 25 |
| C[C@H]1CN([C@@H]2CCc3ccccc3[C@H]2Nc2ncnc3[nH]c(C(F)(F)F)cc23)CCO1 (single isomer, unassigned) | 25 |

| Structure (SMILES) | MNTC [µM] |
| --- | --- |
| C[C@@H]1CN([C@H]2COc3ccccc3[C@@H]2Nc2ncnc3[nH]c(C4CC4)cc23)CCO1 | 25 |
| FC(F)(F)c1cc2c(N[C@@H]3c4ccccc4OC[C@H]3C3CCCOC3)ncnc2[nH]1 (stereo not given in full) | 25 |
| FC(F)(F)c1cc2c(N[C@@H]3c4ccccc4CC[C@@H]3C3CCOCC3)ncnc2[nH]1 | 25 |
| C[C@H]1CN([C@H]2COc3cc(F)ccc3[C@@H]2Nc2ncnc3[nH]c(C4CC4)cc23)CCO1 | 25 |
| Fc1cccc2c1CC[C@H](N1C[C@H]3COC[C@H]3C1)[C@H]2Nc1ncnc2[nH]c(C(F)(F)F)cc12 (single isomer, unassigned) | 25 |
| C[S@](=N)(=O)C1CN([C@H]2COc3ccccc3[C@@H]2Nc2ncnc3[nH]c(C(F)(F)F)cc23)C1 (single isomer, unassigned) | 25 |
| Fc1cccc2c1CC[C@H](N1C[C@H]3COC[C@H]3C1)[C@H]2Nc1ncnc2[nH]c(C3CC3)cc12 (single isomer, unassigned) | 25 |
| C[C@@H]1CN([C@@H]2CCc3ccccc3[C@H]2Nc2ncnc3[nH]c(C(F)(F)F)cc23)C[C@H](C)O1 (single isomer, unassigned) | 25 |
| c1ccc2c(c1)CC[C@@H](C1CCOCC1)[C@@H]2Nc1ncnc2[nH]c(C3CC3)cc12 | 25 |
| FC(F)(F)c1cc2c(N[C@H]3c4ccccc4CC[C@@H]3C3CCOCC3)ncnc2[nH]1 (single isomer, unassigned) | 25 |
| C[C@@H]1CN([C@@H]2CCc3ccccc3[C@H]2Nc2ncnc3[nH]c(C(F)(F)F)cc23)CCO1 (single isomer, unassigned) | 25 |
| OC[C@@H]1CN([C@H]2COc3ccccc3[C@@H]2Nc2ncnc3[nH]c(C(F)(F)F)cc23)CCO1 (single isomer, unassigned) | 25 |
| Fc1ccc2c(c1)OC[C@H](N1C[C@H]3COC[C@H]3C1)[C@H]2Nc1ncnc2[nH]c(C3CC3)cc12 (single isomer, unassigned) | 25 |
| C[C@@H]1COCCN1[C@H]1CCc2ccccc2[C@@H]1Nc1ncnc2[nH]c(C3CC3)cc12 (single isomer, unassigned) | 2.8 |
| CS(=N)(=O)C1CN(C2COc3ccccc3C2Nc2ncnc3[nH]c(C(F)(F)F)cc23)C1 (stereo not given) | 25 |
| c1ccc2c(c1)OC[C@@H](C1CCOCC1)[C@H]2Nc1ncnc2[nH]c(C3CC3)cc12 | 25 |
| c1ccc2c(c1)OC[C@@H](N1C[C@H]3COC[C@H]3C1)[C@@H]2Nc1ncnc2[nH]c(C3CC3)cc12 (single isomer, unassigned) | 25 |
| COC[C@H]1CCCN1[C@H]1COc2ccccc2[C@@H]1Nc1ncnc2[nH]c(C(F)(F)F)cc12 (single isomer, unassigned) | 25 |
| OC(C1CCOCC1)C1COc2ccccc2C1Nc1ncnc2[nH]c(C(F)(F)F)cc12 (single isomer, unassigned) | 25 |
| c1ccc2c(c1)OCC(N1CC3CCOC3C1)C2Nc1ncnc2[nH]c(C3CC3)cc12 (single isomer, unassigned) | 25 |
| CO[C@H]1CCN([C@@H]2COc3ccccc3[C@H]2Nc2ncnc3[nH]c(C4CC4)cc23)C1 | 25 |
| Fc1ccc2c(c1)OC[C@H](N1C[C@H]3COC[C@H]3C1)[C@H]2Nc1ncnc2[nH]c(C(F)(F)F)cc12 (single isomer, unassigned) | 25 |
| Fc1ccc2c(c1)CC[C@@H](N1CCOCC1)[C@@H]2Nc1ncnc2[nH]c(C3CC3)cc12 | 25 |
| COC[C@@H]1CCCN1[C@H]1COc2ccccc2[C@@H]1Nc1ncnc2[nH]c(C(F)(F)F)cc12 (single isomer, unassigned) | 25 |

| Structure (SMILES) | MNTC [µM] |
| --- | --- |
| C[C@@H]1CN([C@H]2COc3ccccc3[C@@H]2Nc2ncnc3[nH]c(C(F)(F)F)cc23)CCO1 | 25 |
| c1ccc2c(c1)CC[C@@H](N1C[C@H]3COC[C@H]3C1)[C@@H]2Nc1ncnc2[nH]c(C3CC3)cc12 (single isomer, unassigned) | 25 |
| FC(F)OC1CN([C@H]2COc3ccccc3[C@@H]2Nc2ncnc3[nH]c(C(F)(F)F)cc23)C1 | 25 |
| c1ccc2c(c1)CC[C@H](C1CCOCC1)[C@@H]2Nc1ncnc2[nH]c(C3CC3)cc12 | 25 |
| C[C@@H]1COCCN1[C@@H]1CCc2ccccc2[C@H]1Nc1ncnc2[nH]c(C(F)(F)F)cc12 (single isomer, unassigned) | 25 |
| FC(F)(F)c1cc2c(N[C@H]3c4ccccc4OC[C@H]3C3CCOCC3)ncnc2[nH]1 | 8.3 |
| Fc1ccc2c(c1)CC[C@@H](N1C[C@@H]3COC[C@H]3C1)[C@@H]2Nc1ncnc2[nH]c(C(F)(F)F)cc12 | 25 |
| Fc1ccc2c(c1)CC[C@H](N1C[C@H]3COC[C@H]3C1)[C@H]2Nc1ncnc2[nH]c(C(F)(F)F)cc12 (single isomer, unassigned) | 25 |
| C[C@H]1CN([C@@H]2COc3ccccc3[C@H]2Nc2ncnc3[nH]c(C4CC4)cc23)CCO1 | 25 |
| FC1COCCC1[C@H]1COc2ccccc2[C@@H]1Nc1ncnc2[nH]c(C(F)(F)F)cc12 (single isomer, unassigned) | 25 |
| C[S@@](=N)(=O)C1CN(C2COc3ccccc3C2Nc2ncnc3[nH]c(C(F)(F)F)cc23)C1 (single isomer, unassigned) | 25 |
| FC(F)(F)c1cc2c(N[C@@H]3c4ccccc4CC[C@H]3C3CCOCC3)ncnc2[nH]1 (single isomer, unassigned) | 25 |
| CN1CCN([C@H]2CCc3ccccc3[C@@H]2Nc2ncnc3[nH]c(C(F)(F)F)cc23)CC1 (single isomer, unassigned) | 25 |
| c1ccc2c(c1)OC[C@@H](N1CCOCC1)[C@H]2Nc1ncnc2[nH]c(C3CC3)cc12 | 25 |
| FC(F)(F)c1cc2c(N[C@H]3c4ccccc4OC[C@@H]3C3CCCOC3)ncnc2[nH]1 (single isomer, unassigned) | 25 |
| C[C@@H]1CN([C@@H]2COc3cc(F)ccc3[C@H]2Nc2ncnc3[nH]c(C(F)(F)F)cc23)CCO1 | 25 |
| [2H]C([2H])([2H])OC1CN([C@@H]2COc3ccccc3[C@H]2Nc2ncnc3[nH]c(C(F)(F)F)cc23)C1 | 25 |
| C[C@H]1CN([C@@H]2CCc3ccccc3[C@H]2Nc2ncnc3[nH]c(C4CC4)cc23)CCO1 (single isomer, unassigned) | 25 |
| CO[C@@H]1CCN([C@H]2COc3ccccc3[C@@H]2Nc2ncnc3[nH]c(C4CC4)cc23)C1 | 25 |
| C[C@@H]1CN([C@H]2CCc3ccccc3[C@@H]2Nc2ncnc3[nH]c(C(F)(F)F)cc23)C[C@H](C)O1 (single isomer, unassigned) | 25 |
| C[C@H]1COCCN1[C@@H]1CCc2ccccc2[C@H]1Nc1ncnc2[nH]c(C(F)(F)F)cc12 (single isomer, unassigned) | 25 |
| CO[C@@H]1CCN([C@@H]2COc3ccccc3[C@H]2Nc2ncnc3[nH]c(C(F)(F)F)cc23)C1 | 25 |
